Patent US8975234B2, “Anti-bacterial infection, inflammation, and leukemia composition and use thereof” (priority 2011, dated 2015)

Legend:
[1] = tested on: MSSA (Methicillin-susceptible Staphylococcus aureus); assay: Minimum inhibitory concentration (broth microdilution) and FIC index; assay type: cell-based; settings: MSSA
Experimental: (§1) A serial of twofold dilution of the tested antibiotics (oxacillin, erythromycin, ampicillin, kanamycin, levofoxacin, vancomycin and doxycycline) was perform by Broth microdilution method to a final concentration of 2-512 μg/mL. The bacterial overnight culture was collected and re-suspended in the Muller-Hilton (M-H) broth. An aliquot of cell suspension (OD600=0.1) was prepared. The bacterial suspensions were plated in 96-well plate and incubated with test antibiotics at 37° C. in a 5% CO2 incubator (Table 1 to Table 4).
(§2) The […], […] and antagonism between two drugs was evaluated by the following formula:
(§3) [formula] The criteria of fractional inhibitory concentration index: […]

[2] = tested on: standard MRSA strain (ATCC 33591); assay: Minimum inhibitory concentration (broth microdilution); assay type: cell-based, Staphylococcus aureus; settings: Table 1
Experimental: as §1

MRSA 19615 = assay: Minimum inhibitory concentration (broth microdilution) and FIC index; assay type: cell-based, Staphylococcus aureus
Experimental: as §1, §2, §3

MRSA 18631 = assay: as above; assay type: cell-based, Staphylococcus aureus
Experimental: as §1, §2, §3

MRSA 18271 = assay: as above; assay type: cell-based, Staphylococcus aureus
Experimental: as §1, §2, §3

DPPH scavenging assay = settings: 100 μM; −FeCl2
Experimental: Test reagents, natural extracts and Vitamin C (ascorbic acid) were dissolved in methanol to make a stock solution 10×. Vitamin C was used as the positive control. 120 μM DPPH solution was prepared. Taken 20 μL of stock reagents, natural extracts and Vitamin C on a 96-well microplate, and methanol was added to make up to the total volume of 100 μL. Control was 100 μL methanol. Each sample was mixed with 100 μL DPPH solution and incubated in the dark for 40 minutes. DPPH level of each well was evaluated by detecting the optical density of each well at 517 nm and the results were shown in Table 5.

[3] = Table 3, Tellimagrandin II (40 μg/ml) +
[4] = Table 3, 19615, Tellimagrandin II (40 μg/ml) +
[5] = Table 3, 18631, Tellimagrandin II (40 μg/ml) +
[6] = Table 3, 18271, Tellimagrandin II (40 μg/ml) +

| Compound | Minimum inhibitory concentration ([1]; Table 1) [µg/mL] | Minimum inhibitory concentration [2] [µg/mL] | Minimum inhibitory concentration (MRSA 19615; Table 1, MRSA 19615) [µg/mL] | Minimum inhibitory concentration (MRSA 18631; Table 1, MRSA 18631) [µg/mL] | Minimum inhibitory concentration (MRSA 18271; Table 1, MRSA 18271) [µg/mL] | MIC ([1]; Staphylococcus aureus) [µg/mL] | MIC [1, 3] [µg/mL] | MIC (MRSA 19615; Staphylococcus aureus, MRSA) [µg/mL] | FIC (MRSA 19615; [4]) | MIC (MRSA 19615; [4]) [µg/mL] | MIC (MRSA 18631; Staphylococcus aureus, MRSA) [µg/mL] | FIC (MRSA 18631; [5]) | MIC (MRSA 18631; [5]) [µg/mL] | MIC (MRSA 18271; Staphylococcus aureus, MRSA) [µg/mL] | FIC (MRSA 18271; [6]) | MIC (MRSA 18271; [6]) [µg/mL] | FIC [1, 3] | DPPH free-radical scavenging activity (DPPH scavenging assay) [%] |
| --- | --- | --- | --- | --- | --- | --- | --- | --- | --- | --- | --- | --- | --- | --- | --- | --- | --- | --- |
| Penicillin | >512 | >512 | >512 | >512 | >512 |  |  |  |  |  |  |  |  |  |  |  |  |  |
| CN[C@H](CC(C)C)C(=O)N[C@H]1C(=O)N[C@@H](CC(N)=O)C(=O)N[C@H]2C(=O)N[C@H]3C(=O)N[C@H](C(=O)N[C@H](C(=O)O)c4cc(O)cc(O)c4-c4cc3ccc4O)[C@H](O)c3ccc(c(Cl)c3)Oc3cc2cc(c3O[C@@H]2O[C@H](CO)[C@@H](O)[C@H](O)[C@H]2O[C@H]2C[C@](C)(N)[C@H](O)[C@H](C)O2)Oc2ccc(cc2Cl)[C@H]1O [Vancomycin] |  |  |  |  |  | > 2 | >2 | 4 | 1.00 | 4 | 4 | 1.00 | 4 | 4 | 1.00 | 4 |  |  |
| CC1(C)S[C@@H]2[C@H](NC(=O)[C@H](N)c3ccccc3)C(=O)N2[C@H]1C(=O)O [Ampicillin] |  |  |  |  |  | 512 | 256 | 512 | 1.00 | 512 | 512 | 1.00 | 512 | 512 | 0.031 | 16 | 0.50 |  |
| O=C1O[C@H]([C@@H](O)CO)C(O)=C1O [Vitamin C, ascorbic acid] |  |  |  |  |  |  |  |  |  |  |  |  |  |  |  |  |  | 81.09 ± 0.5 |
